Reference: patent US11771681B2, “Therapeutic compounds” (SMALL PHARMA LTD, priority 2019, dated 2023)

Key:
[1] = In vitro intrinsic clearance in human hepatocytes; format: in vitro ADME; settings: both sexes, pooled hepatocytes in suspension, human (mixed gender) hepatocytes pooled from 10 donors, 0.545 million cells/mL, up to 60 minutes at 37° C., weighted on ratio of D0, D1 and D2
Method: (§1) Human (mixed gender) hepatocytes pooled from 10 donors (0.545 million cells/mL) were used to investigate the in vitro intrinsic clearance of DMT and 6 deuterated analogues.
(§2) A concentration of 5 μM was used for all test compounds, as well as sumatriptan, serotonin, benzylamine controls. This concentration was chosen in order to maximise the signal-to-noise ratio, while remaining under the Michaelis constant (Km) for the monoamine oxidase enzyme (MAO). Diltiazem and diclofenac controls were used at a laboratory-validated concentration of 1 μM.
(§3) Test compounds were mixed with the hepatocyte suspension within a 96-well plate and incubated for up to 60 minutes at 37° C. […] At 7 time points, small aliquots were withdrawn, and the test compound/blend concentration therein was measured by LC-MS/MS. The time points measured were 2, 4, 8, 15, 30, 45 and 60 minutes. […]
(§4) The MRM transitions were determined from a preliminary analysis of DMT samples containing either no deuterium (for D0 transition), or high levels of either D1 or D2 deuteration (for the D1 and D2 transitions respectively).
(§5) The resulting concentration-time profile was then used to calculate intrinsic clearance (CLint) and half-life (t½). […] Intrinsic clearance is calculated from the slope/elimination rate constant and the formula is CLint=(−1000*slope)/cell density in 1E6 cells/ml, to give units of microlitre/min/million cells. […]

[2] = system: human hepatocytes; assay: In vitro intrinsic clearance in human hepatocytes; format: in vitro ADME; settings: human (mixed gender) hepatocytes pooled from 10 donors, 0.545 million cells/mL; 5 μM; up to 60 minutes at 37° C.; calculated, weighted on ratio of D0, D1 and D2
Method: as §1, §2, §3, §4, §5

**Q.** For `CN(C)CCc1c[nH]c2ccccc12` [DMT, N,N-dimethyltryptamine], which hepatocyte CLint at 5 μM [1] is on record?
**A.** 13.8 µL/min/1e6 cells

**Q.** What about the Half-life [2] of the same compound?
**A.** 1.54 h
